Reference: publication PMC12730265, “Combinatorial Antimicrobial Effects of Imidazolium-Based Ionic Liquids and Antifungals on Model Fungal Organisms” (Biomolecules, 2025)
Like-named read-outs stand apart in the source and are kept apart here.

How the values were obtained:
S. cerevisiae = assay: Kirby–Bauer disk diffusion assay on IL-containing YPD plates; assay type: cell-based; conditions: for Zone of inhibition (ZOI) diameter: 100 = no growth on plate
Method: (§1) Assessment of fungal growth on YPD plates with AFs + ILs served as an indicator for the combined efficacy of treatment of ILs and AFs. YPD agar plates were made with addition of increasing concentrations of [HMIM]Cl at 0, 2.5, 6.25, and 25 mM or [OMIM]Cl at 0, 0.25, 0.625, and 2.5 mM. Plates solidified and dried on bench for 24 h before use. IN total, 400 μL of S. cerevisiae or C. albicans liquid culture at mid-log phase OD600 0.5 was spread using sterile glass beads to achieve even distribution. Following addition of culture, the plates were allowed to dry for 30 min before the addition of antifungal disks. Antifungal-infused disks were prepared using the stock solutions of solubilized antibiotics; 15 μL of each of the 4 azole antifungals at stock concentrations was pipetted onto a sterile 6 mm cellulose disk (BD). […] After plate drying was complete, sterile forceps were used to transfer the disks to the media, and the plate was grown upright in an incubator overnight at 30 °C. The following day, photographs were taken of the plates to visualize the zone of inhibition (ZOI) created by the combined treatment. Adobe Illustrator 2023 CC was used to perform digital measurements of ZOI diameters.
(§2) To assess the potential for combinatorial effects of ILs and AFs in yeast, Kirby–Bauer disk diffusion assays were performed for C. albicans and S. cerevisiae for [HMIM]Cl and [OMIM]Cl with all four AFs. […] The addition of 6 mm cellulose disks infused with equal volumes of solubilized AFs to the plates occurred after plating of C. albicans or S. cerevisiae, allowing for growth for 48 h at 23 °C, at which point the plates were evaluated for the establishment of zones of inhibition (ZOI). Digital pictures were acquired of all plates, and measurements of ZOI diameter were performed digitally as described in the Methods. […] With progressively increasing amounts of both [HMIM]Cl and [OMIM]Cl, ZOIs increased for all Afs, including Fluconazole and Itraconazole, which appear to be ineffective without IL in the Kirby–Bauer disk assay. Experiments were performed in triplicate and ZOIs were measured for all plates.
Similar experiments testing the combinatorial effects of [HMIM]Cl or [OMIM]Cl were performed on S. cerevisiae using Kirby–Bauer disk assays and quantified for changes in ZOI (Appendix Figure A1). ZOI measurements (mm) from both C. albicans and S. cerevisiae were compiled, and the averages are shown numerically as well as with shading and plotted in Figure 3. […] Finally, at intermediate concentrations of both [HMIM]Cl and [OMIM]Cl, a combinatorial effect of IL + AF was evident for all four AFs in S. cerevisiae, similar to observations in C. albicans.

C. albicans = assay: as above; assay type: cell-based
Method: as §1, §2

HeLa cells = assay: CellTiter-Blue cytotoxicity assay; assay type: cell-based, human; conditions: for EC50: Homo sapiens, HeLa, read-out: EC50 (50% viability)
Method: EC50 and FIC calculations were performed using these treatments.
To understand the degree to which imidazolium chloride-based ILs of varying chain length are toxic to human cells, we treated HeLa cells with [HMIM]Cl or [OMIM]Cl with each of the four azole AFs for 24 h and evaluated cytotoxicity. Following 24 h of exposure in liquid culture at defined serial dilutions in a 96-well plate format, cells were evaluated for viability using CellTiter-Blue assay in which living cells can metabolize resazurin into resorufin, a fluorescent reporter molecule detected by plate spectroscopy. Consistent with findings for bacteria and yeast microorganisms, high concentrations of imidazolium chloride-based ILs are toxic to HeLa cells (Figure 6B). Moreover, HeLa cells treated with ILs with longer alkyl chain lengths [OMIM]Cl are less viable than when treated with [HMIM]Cl at the same final concentration. […] With respect to all four AFs, the degree of specificity for these drugs to fungi vs. human cells was clear (Figure 6B).

Structure (SMILES): Clc1ccccc1C(c1ccccc1)(c1ccccc1)n1ccnc1 [Clotrimazole]
- Zone of inhibition (ZOI) diameter (S. cerevisiae; [HMIM]Cl 0 mM in plate): 21.67 mm
- Zone of inhibition (ZOI) diameter (S. cerevisiae; [HMIM]Cl 2.5 mM in plate): 26.67 mm
- Zone of inhibition (ZOI) diameter (S. cerevisiae; [HMIM]Cl 6.25 mM in plate): 50.33 mm
- Zone of inhibition (ZOI) diameter (S. cerevisiae; [HMIM]Cl 25 mM in plate): 100 mm
- Zone of inhibition (ZOI) diameter (S. cerevisiae; [OMIM]Cl 0 M in plate): 21.67 mm
- Zone of inhibition (ZOI) diameter (S. cerevisiae; [OMIM]Cl 0.25 mM in plate): 30 mm
- Zone of inhibition (ZOI) diameter (S. cerevisiae; [OMIM]Cl 0.625 mM in plate): 47.33 mm
- Zone of inhibition (ZOI) diameter (S. cerevisiae; [OMIM]Cl 2.5 mM in plate): 100 mm
- Zone of inhibition (ZOI) diameter (C. albicans; [HMIM]Cl 0 mM in plate): 10 mm
- Zone of inhibition (ZOI) diameter (C. albicans; [HMIM]Cl 2.5 mM in plate): 10.33 mm
- Zone of inhibition (ZOI) diameter (C. albicans; [HMIM]Cl 6.25 mM in plate): 25.67 mm
- Zone of inhibition (ZOI) diameter (C. albicans; [HMIM]Cl 25 mM in plate): 30.67 mm
- Zone of inhibition (ZOI) diameter (C. albicans; [OMIM]Cl 0 M in plate): 10 mm
- Zone of inhibition (ZOI) diameter (C. albicans; [OMIM]Cl 0.25 mM in plate): 11 mm
- Zone of inhibition (ZOI) diameter (C. albicans; [OMIM]Cl 0.625 mM in plate): 23.33 mm
- Zone of inhibition (ZOI) diameter (C. albicans; [OMIM]Cl 2.5 mM in plate): 44.67 mm
- inhibition of C. albicans growth around disk (C. albicans; absence of added IL): minimal inhibition

Structure (SMILES): CCCCCCCCn1cc[n+](C)c1.[Cl-] [[OMIM]Cl, 1-octyl-3-methylimidazolium chloride]
- growth of S. cerevisiae on IL plate (S. cerevisiae; plates with 2.5 mM [OMIM]Cl): complete inability to grow
- EC50 (HeLa cells; 24 h exposure): 1.11 mM

Structure (SMILES): CCCCCCn1cc[n+](C)c1.[Cl-] [[HMIM]Cl, 1-hexyl-3-methylimidazolium chloride]
- growth of S. cerevisiae on IL plate (S. cerevisiae; plates with 25 mM [HMIM]Cl): complete inability to grow
- toxicity on HeLa cells (HeLa cells; 1.563 mM [HMIM]Cl): low levels of toxicity
- EC50 (HeLa cells; 24 h): 14.1 mM
